Data published in a compilation of properties of binary mixtures (doi:10.1016/j.fluid.2017.10.015).
“And” between values parts separate entries of the source, which are not always exact repeats. Equal values may be shown once.

Experiment: xn = mol fraction of the nth substance listed
Details: 100 kPa

Row | Compound | electrical conductivity (298.15 K, x1 = 0.0001) [S/m] | electrical conductivity (308.15 K, x1 = 0.0001) [S/m] | electrical conductivity (318.15 K, x1 = 0.0001) | electrical conductivity (328.15 K, x1 = 0.0001) | electrical conductivity (298.15 K, x2 = 0) | electrical conductivity (308.15 K, x2 = 0) | electrical conductivity (318.15 K, x2 = 0) | electrical conductivity (328.15 K, x2 = 0)
1 | CCCCCCCCCCCC[N+]1(C)CCCC1.O=C([O-])c1ccccc1O + O | 0.0115 | 0.0161 | 0.0185 S/m and 0.0235 S/m | 0.0231 S/m and 0.0293 S/m | – | – | – | –
2 | CCCCCCCCCCCC[N+]1(C)CCCCC1.O=C([O-])c1ccccc1O + O | – | – | – | 0.0271 S/m | – | – | – | –
3 | O + CCCCCCCCCCCC[N+]1(C)CCCC1.O=C([O-])c1ccccc1O | – | – | – | – | 0.0089 S/m and 0.0093 S/m and 0.0105 S/m | 0.0116 S/m and 0.0126 S/m and 0.0139 S/m | 0.0153 S/m and 0.0171 S/m | 0.0172 S/m and 0.0186 S/m and 0.0212 S/m
